Common to all, as to assay type: functional, Homo sapiens
Assay [1] relates to SCLC. The assay is described as follows: Tested for induction of SSAT activity in H82 SCLC cells following treatment with 10 uM of the BESpm.
The test system of assay [2] is LCLC. The assay can be described thus: Tested for induction of SSAT activity in H157 LCLC cells following treatment with 10 uM of the BESpm.
Assay [3] deals with SCLC. The assay can be described thus: Tested for induction of SSAT activity in H82 SCLC cells following treatment with 10 uM BESpm.

For the compound `Br.Br.Br.Br.C#CCNCCCNCCCNCCCNCC`, the SSAT came out at 19.8 pmol/min/mg in assay [1] and 19100 pmol/min/mg in assay [2].

For `Br.Br.Br.Br.CCNCCCNCCCCNCCCNCC`, the SSAT came out at 22.7 pmol/min/mg in assay [3] and 38300 pmol/min/mg in assay [2].

`Br.Br.Br.Br.CCNCCCNCCCNCCCNCC1CC1`: the SSAT amounted to 47.1 pmol/min/mg in assay [1] and 42800 pmol/min/mg in assay [2].

These data come from ChEMBL document CHEMBL1126941, “Synthesis and evaluation of unsymmetrically substituted polyamine analogues as modulators of human spermidine/spermine-N1-acetyltransferase (SSAT) and as potential antitumor agents” (1993).
